Target: T1, KRAS G12C 1-169, his-tagged protein, GDP-loaded (Homo sapiens, UniProt P01116, G12C)
T1 construct: KRAS G12C 1-169, his-tagged protein, GDP-loaded
Assay: Biochemical assay: covalent binding (modification %) to KRAS G12C by mass spectrometry
Settings: 2 hour incubation period, 8 μM compound (compounds 21-92)
Description: Test compounds were prepared as 10 mM stock solutions in DMSO (Fisher cat# BP-231-100). KRAS G12C 1-169, his-tagged protein, GDP-loaded was diluted to 2 μM or 0.5 μM in buffer (20 mM Hepes, 150 mM NaCl, 1 mM MgCl2). Compounds were tested for activity as follows:
Compounds were diluted to 50× final test concentration in DMSO in 96-well storage plates. Compound stock solutions were vortexed before use and observed carefully for any sign of precipitation. Dilutions were as follow: • For 100 μM final compound concentration, compounds were diluted to 5000 μM (5 μL 10 mM compound stock+5 μL DMSO and mixed well by pipetting. • For 30 μM final compound concentration, compounds were diluted to 1500 μM (3 μL 10 mM compound stock+17 μL DMSO) and mixed well by pipetting. • For 10 μM final compound concentration, compounds were diluted to 500 μM (2 μL 10 mM compound stock+38 μL DMSO) and mixed well by pipetting. 49 μL of the stock protein solution was added to each well of a 96-well PCR plate (Fisher cat#1423027). 1 μl of the diluted 50× compounds were added to appropriate wells in the PCR plate using 12-channel pipettor. Reactions were mixed carefully and thoroughly by pipetting up/down with a 200 μL multi-channel pipettor. The plate was sealed well with aluminum plate seal, and stored in drawer at room temperature for 10 minutes, 30 minutes, 2 hours or 24 hours. 5 μL of 2% formic acid (Fisher cat# A117) in de-ionized H2O was then added to each well followed by mixing with a pipette. The plate was then resealed with aluminum seal and stored on dry ice until analyzed as described below.
The above described assays were analyzed by mass spectrometry according to one of the following two procedures:
The MS instrument is set to positive polarity, 2 GHz resolution, and low mass (1700) mode and allowed to equilibrate for 30 minutes. The instrument is then calibrated, switched to acquisition mode and the appropriate method loaded.
After another 30 minute equilibration time, a blank batch (i.e., buffer) is run to ensure equipment is operating properly. The samples are thawed at 37° C. for 10 minutes, briefly centrifuged, and transfer to the bench top. Wells A1 and H12 are spiked with 1 μL 500 μM internal standard peptide, and the plates centrifuged at 2000×g for 5 minutes. The method is then run and masses of each individual well recorded.
The masses (for which integration data is desired) for each well are pasted into the platemap and exported from the analysis. Masses for the internal standards are exported as well. The data at 50 ppm is extracted for the +19 charge state, and identity of well A1 is assigned using the internal standard spike and integrated. Peak data is exported as a TOF list and the above steps are repeated individually, for the +20, 21, 22, 23, 24, and 25 charge states.
The masses and peak intensities of KRAS G12C protein species were measured using a Dionex RSLCnano system (Thermo Scientific) connected to a Q Exactive Plus mass spectrometer (Thermo Scientific).
[…] of sample was each loaded onto a Aeris™ 3.6 μm WIDEPORE C4 200 Å, LC Column 50×2.1 mm column maintained at 40° C. at a flow rate of 600 μL/min with 20% Solvent A (0.1% formic acid in H2O) and 80% Solvent B (0.1% formic acid in acetonitrile). The liquid chromatography conditions were 20% solvent B for 1 minute, 20% to 60% solvent B for 1.5 minutes, 60% to 90% solvent for 0.5 minute, 90% solvent B for 0.2 minute, 90% to 20% solvent B for 0.2 minute, and then equilibrated for 1.6 minute before the following sample injection. The flow rate was maintained at 600 μL/min throughout the sample analysis.
The mass spectrometer was operated in profile mode at a resolution of 17500, 5 microscans, using 50 msec max injection time and an AGC target of 1×10^6, and a full mass range from 800-1850 m/z was recorded. The HCD trapping gas was optimized for maximum sensitivity for intact proteins. […]

C=CC(=O)N1CC(N2Cc3c(F)cc(-c4cc(O)cc5ccccc45)cc3C2=O)C1 [Compound 27, 2-(1-acryloylazetidin-3-yl)-4-fluoro-6-(3-hydroxynaphthalen-1-yl)isoindolin-1-one]
Binding %: +++ (+++ indicates binding activity greater than 50%)

C=CC(=O)N1CC(N2Cc3c(cc(-c4cc(O)cc5ccccc45)cc3C(F)(F)F)C2=O)C1 [Compound 28, 2-(1-acryloylazetidin-3-yl)-6-(3-hydroxynaphthalen-1-yl)-4-(trifluoromethyl)isoindolin-1-one]
Binding %: ++ (++ indicates binding activity from 10 to 50%)

C=CC(=O)N1CC(N2Cc3cc(C)c(-c4cc(O)ccc4Cl)cc3C2=O)C1 [Compound 29, 2-(1-acryloylazetidin-3-yl)-6-(2-chloro-5-hydroxyphenyl)-5-methylisoindolin-1-one]
Binding %: ++ (++ indicates binding activity from 10 to 50%)

C=CC(=O)N1CC(N2Cc3cc(C)c(-c4cc(O)cc5ccccc45)cc3C2=O)C1 [Compound 30, 2-(1-acryloylazetidin-3-yl)-6-(3-hydroxynaphthalen-1-yl)-5-methylisoindolin-1-one]
Binding %: +++ (+++ indicates binding activity greater than 50%)

C=CC(=O)N1CC(N2CCc3ccc(-c4cc(O)cc5ccccc45)cc3CC2)C1 [Compound 31, 1-(3-(7-(3-hydroxynaphthalen-1-yl)-4,5-dihydro-1H-benzo[d]azepin-3(2H)-yl)azetidin-1-yl)prop-2-en-1-one]
Binding %: + (+ indicates binding activity up to 10%)

C=CC(=O)N1CC(N2C(=O)c3ccc(-c4c(C)ccc5[nH]ncc45)cc3C2=O)C1 [Compound 32, 2-(1-acryloylazetidin-3-yl)-5-(5-methyl-1H-indazol-4-yl)isoindoline-1,3-dione]
Binding %: + (+ indicates binding activity up to 10%)

C=CC(=O)N1CC(N2Cc3ccc(-c4cc(O)cc(F)c4)cc3C2=O)C1 [Compound 33, 2-(1-acryloylazetidin-3-yl)-6-(3-fluoro-5-hydroxyphenyl)isoindolin-1-one]
Binding %: + (+ indicates binding activity up to 10%)

C=CC(=O)N1CC(N2Cc3sc(-c4cc(O)cc5ccccc45)cc3C2=O)C1 [Compound 34, 5-(1-acryloylazetidin-3-yl)-2-(3-hydroxynaphthalen-1-yl)-5,6-dihydro-4H-thieno[2,3-c]pyrrol-4-one]
Binding %: +++ (+++ indicates binding activity greater than 50%)

C=CC(=O)N1CC(N2CCc3ccc(-c4cc(O)cc5ccccc45)cc3C2=O)C1 [Compound 35, 2-(1-acryloylazetidin-3-yl)-7-(3-hydroxynaphthalen-1-yl)-3,4-dihydroisoquinolin-1(2H)-one]
Binding %: +++ (+++ indicates binding activity greater than 50%)

C=CC(=O)N1CC(N2CCc3ccc(-c4c(C)ccc5[nH]ncc45)cc3C2=O)C1 [Compound 36, 2-(1-acryloylazetidin-3-yl)-7-(5-methyl-1H-indazol-4-yl)-3,4-dihydroisoquinolin-1(2H)-one]
Binding %: + (+ indicates binding activity up to 10%)

C=CC(=O)N1CC(N2CCc3ccc(-c4c(C)ccc5[nH]ncc45)cc3CC2)C1 [Compound 37, 1-(3-(7-(5-methyl-1H-indazol-4-yl)-4,5-dihydro-1H-benzo[d]azepin-3(2H)-yl)azetidin-1-yl)prop-2-en-1-one]
Binding %: + (+ indicates binding activity up to 10%)

C=CC(=O)N1CC(N2Cc3ccc(-c4c(C)ccc5[nH]ncc45)cc3CC2=O)C1 [Compound 38, 2-(1-acryloylazetidin-3-yl)-6-(5-methyl-1H-indazol-4-yl)-1,2-dihydroisoquinolin-3(4H)-one]
Binding %: ++ (++ indicates binding activity from 10 to 50%)

C=CC(=O)N1CC(N2Cc3ccc(-c4c(C)ccc5cn[nH]c45)cc3CC2=O)C1 [Compound 39, 2-(1-acryloylazetidin-3-yl)-6-(6-methyl-1H-indazol-7-yl)-1,2-dihydroisoquinolin-3(4H)-one]
Binding %: ++ (++ indicates binding activity from 10 to 50%)

C=CC(=O)N1CC(N2Cc3ccc(-c4cc(O)ccc4Cl)cc3CC2=O)C1 [Compound 40, 2-(1-acryloylazetidin-3-yl)-6-(2-chloro-5-hydroxyphenyl)-1,2-dihydroisoquinolin-3(4H)-one]
Binding %: +++ (+++ indicates binding activity greater than 50%)

C=CC(=O)N1CC(N2Cc3ccc(-c4c(O)cccc4F)cc3CC2=O)C1 [Compound 41, 2-(1-acryloylazetidin-3-yl)-6-(2-fluoro-6-hydroxyphenyl)-1,2-dihydroisoquinolin-3(4H)-one]
Binding %: ++ (++ indicates binding activity from 10 to 50%)

C=CC(=O)N1CC(N2Cc3sc(-c4c(C)ccc5[nH]ncc45)cc3C2=O)C1 [Compound 42, 5-(1-acryloylazetidin-3-yl)-2-(5-methyl-1H-indazol-4-yl)-5,6-dihydro-4H-thieno[2,3-c]pyrrol-4-one]
Binding %: ++ (++ indicates binding activity from 10 to 50%)

C=CC(=O)N1CC(N2Cc3c(O)cc(-c4cc(O)cc5ccccc45)cc3C2=O)C1 [Compound 43, 2-(1-acryloylazetidin-3-yl)-4-hydroxy-6-(3-hydroxynaphthalen-1-yl)isoindolin-1-one]
Binding %: +++ (+++ indicates binding activity greater than 50%)

C=CC(=O)N1CC(N2Cc3c(O)cc(-c4c(C)ccc5[nH]ncc45)cc3C2=O)C1 [Compound 44, 2-(1-acryloylazetidin-3-yl)-4-hydroxy-6-(5-methyl-1H-indazol-4-yl)isoindolin-1-one]
Binding %: ++ (++ indicates binding activity from 10 to 50%)

C=CC(=O)N1CC(N2Cc3ccc(Oc4ccccc4)cc3C2=O)C1 [Compound 45, 2-(1-acryloylazetidin-3-yl)-6-phenoxyisoindolin-1-one]
Binding %: + (+ indicates binding activity up to 10%)

C=CC(=O)N1CC(N2Cc3ccc(-c4cccc5[nH]cnc45)cc3C2=O)C1 [Compound 46, 2-(1-acryloylazetidin-3-yl)-6-(1H-benzo[d]imidazol-4-yl)isoindolin-1-one]
Binding %: + (+ indicates binding activity up to 10%)

C=CC(=O)N1CC(N2Cc3ccc(-c4ccccc4C(N)=O)cc3C2=O)C1 [Compound 47, 2-(2-(1-acryloylazetidin-3-yl)-3-oxoisoindolin-5-yl)benzamide]
Binding %: + (+ indicates binding activity up to 10%)

C=CC(=O)N1CC(N2Cc3ccc(-c4cccc5[nH]ncc45)cc3C2=O)C1 [Compound 48, 2-(1-acryloylazetidin-3-yl)-6-(1H-indazol-4-yl)isoindolin-1-one]
Binding %: + (+ indicates binding activity up to 10%)

C=CC(=O)N1CC(N2Cc3ccc(-c4cc(O)cc(Cl)c4)cc3C2=O)C1 [Compound 49, 2-(1-acryloylazetidin-3-yl)-6-(3-chloro-5-hydroxyphenyl)isoindolin-1-one]
Binding %: ++ (++ indicates binding activity from 10 to 50%)

C=CC(=O)N1CC(N2Cc3ccc(-c4cccc(C(N)=O)c4)cc3C2=O)C1 [Compound 50, 3-(2-(1-acryloylazetidin-3-yl)-3-oxoisoindolin-5-yl)benzamide]
Binding %: + (+ indicates binding activity up to 10%)

C=CC(=O)N1CC(N2Cc3ccc(-c4cc(O)cc5ccccc45)cc3C2)C1 [Compound 51, 1-(3-(5-(3-hydroxynaphthalen-1-yl)isoindolin-2-yl)azetidin-1-yl)prop-2-en-1-one]
Binding %: + (+ indicates binding activity up to 10%)

C=CC(=O)N1CC(N2Cc3ccc(-c4ccc(NC)cc4)cc3C2=O)C1 [Compound 52, 2-(1-acryloylazetidin-3-yl)-6-(4-(methylamino)phenyl)isoindolin-1-one]
Binding %: + (+ indicates binding activity up to 10%)
